Measurements as given in ChEMBL document CHEMBL4507329, “Data for DCP probe BTZO-1” (2021).

Tests used:
[1] = tested on: Tyrosine-protein kinase ABL1 (Homo sapiens), P00519 [H396P]; settings: Compound concentration 1000.0 nM
[2] = target: ALK tyrosine kinase receptor (Homo sapiens) (UniProt Q9UM73); settings: Compound concentration 1000.0 nM
[3] = target: Cyclin-dependent kinase-like 3 (Homo sapiens) (UniProt Q8IVW4); settings: Compound concentration 1000.0 nM
[4] = target: Macrophage colony-stimulating factor 1 receptor (Homo sapiens) (UniProt P07333); settings: Compound concentration 1000.0 nM
[5] = target: Megakaryocyte-associated tyrosine-protein kinase (Homo sapiens) (UniProt P42679); settings: Compound concentration 1000.0 nM
[6] = target: Dual specificity tyrosine-phosphorylation-regulated kinase 1A (Homo sapiens) (UniProt Q13627); settings: Compound concentration 1000.0 nM
[7] = target: Dual specificity tyrosine-phosphorylation-regulated kinase 2 (Homo sapiens) (UniProt Q92630); settings: Compound concentration 1000.0 nM
[8] = target: Ephrin type-A receptor 1 (Homo sapiens) (UniProt P21709); settings: Compound concentration 1000.0 nM
[9] = target: Ephrin type-A receptor 4 (Homo sapiens) (UniProt P54764); settings: Compound concentration 1000.0 nM
[10] = target: Ephrin type-A receptor 6 (Homo sapiens) (UniProt Q9UF33); settings: Compound concentration 1000.0 nM
[11] = target: Ephrin type-B receptor 6 (Homo sapiens) (UniProt O15197); settings: Compound concentration 1000.0 nM
[12] = target: Focal adhesion kinase 1 (Homo sapiens) (UniProt Q05397); settings: Compound concentration 1000.0 nM
[13] = target: Receptor-type tyrosine-protein kinase FLT3 (Homo sapiens) (UniProt P36888); settings: Compound concentration 1000.0 nM
[14] = target: Homeodomain-interacting protein kinase 1 (Homo sapiens) (UniProt Q86Z02); settings: Compound concentration 1000.0 nM
[15] = target: Serine/threonine-protein kinase ICK (Homo sapiens) (UniProt Q9UPZ9); settings: Compound concentration 1000.0 nM
[16] = target: Interleukin-1 receptor-associated kinase 4 (Homo sapiens) (UniProt Q9NWZ3); settings: Compound concentration 1000.0 nM
[17] = target: Mitogen-activated protein kinase 9 (Homo sapiens) (UniProt P45984); settings: Compound concentration 1000.0 nM
[18] = target: Tyrosine-protein kinase Lck (Homo sapiens) (UniProt P06239); settings: Compound concentration 1000.0 nM
[19] = target: Leukocyte tyrosine kinase receptor (Homo sapiens) (UniProt P29376); settings: Compound concentration 1000.0 nM
[20] = target: Tyrosine-protein kinase Lyn (Homo sapiens) (UniProt P07948); settings: Compound concentration 1000.0 nM
[21] = target: Tyrosine-protein kinase Mer (Homo sapiens) (UniProt Q12866); settings: Compound concentration 1000.0 nM
[22] = target: Dual specificity mitogen-activated protein kinase kinase 7 (Homo sapiens) (UniProt O14733); settings: Compound concentration 1000.0 nM
[23] = target: Serine/threonine-protein kinase 4 (Homo sapiens) (UniProt Q13043); settings: Compound concentration 1000.0 nM
[24] = target: Serine/threonine-protein kinase 26 (Homo sapiens) (UniProt Q9P289); settings: Compound concentration 1000.0 nM
[25] = target: Myosin light chain kinase family member 4 (Homo sapiens) (UniProt Q86YV6); settings: Compound concentration 1000.0 nM
[26] = target: Serine/threonine-protein kinase Nek7 (Homo sapiens) (UniProt Q8TDX7); settings: Compound concentration 1000.0 nM
[27] = target: Serine/threonine-protein kinase PAK 1 (Homo sapiens) (UniProt Q13153); settings: Compound concentration 1000.0 nM
[28] = target: Serine/threonine-protein kinase PAK 2 (Homo sapiens) (UniProt Q13177); settings: Compound concentration 1000.0 nM
[29] = target: Serine/threonine-protein kinase PAK 3 (Homo sapiens) (UniProt O75914); settings: Compound concentration 1000.0 nM
[30] = target: 3-phosphoinositide-dependent protein kinase 1 (Homo sapiens) (UniProt O15530); settings: Compound concentration 1000.0 nM
[31] = target: Cyclin-dependent kinase 14 (Homo sapiens) (UniProt O94921); settings: Compound concentration 1000.0 nM
[32] = tested on: Phosphatidylinositol 4,5-bisphosphate 3-kinase catalytic subunit alpha isoform (Homo sapiens), P42336 [E545K]; settings: Compound concentration 1000.0 nM
[33] = tested on: Phosphatidylinositol 4,5-bisphosphate 3-kinase catalytic subunit alpha isoform (Homo sapiens), P42336 [H1047L]; settings: Compound concentration 1000.0 nM
[34] = tested on: Phosphatidylinositol 4,5-bisphosphate 3-kinase catalytic subunit alpha isoform (Homo sapiens), P42336 [Q546K]; settings: Compound concentration 1000.0 nM
[35] = target: Serine/threonine-protein kinase D3 (Homo sapiens) (UniProt O94806); settings: Compound concentration 1000.0 nM
[36] = target: Serine/threonine-protein kinase RIO1 (Homo sapiens) (UniProt Q9BRS2); settings: Compound concentration 1000.0 nM
[37] = target: Ribosomal protein S6 kinase beta-1 (Homo sapiens) (UniProt P23443); settings: Compound concentration 1000.0 nM
[38] = target: Serine/threonine-protein kinase Sgk1 (Homo sapiens) (UniProt O00141); settings: Compound concentration 1000.0 nM
[39] = target: TGF-beta receptor type-2 (Homo sapiens) (UniProt P37173); settings: Compound concentration 1000.0 nM
[40] = target: NT-3 growth factor receptor (Homo sapiens) (UniProt Q16288); settings: Compound concentration 1000.0 nM
[41] = target: Dual specificity protein kinase TTK (Homo sapiens) (UniProt P33981); settings: Compound concentration 1000.0 nM
[42] = target: Phosphatidylinositol 3-kinase catalytic subunit type 3 (Homo sapiens) (UniProt Q8NEB9); settings: Compound concentration 1000.0 nM
[43] = target: Serine/threonine-protein kinase WNK1 (Homo sapiens) (UniProt Q9H4A3); settings: Compound concentration 1000.0 nM
[44] = target: Mitogen-activated protein kinase kinase kinase 19 (Homo sapiens) (UniProt Q56UN5); settings: Compound concentration 1000.0 nM
[45] = target: Alpha-2B adrenergic receptor (Homo sapiens) (UniProt P18089); settings: Compound concentration 10.0 uM

Interleukin-1 receptor-associated kinase 4 (Homo sapiens), sequence (Q9NWZ3 whole entry): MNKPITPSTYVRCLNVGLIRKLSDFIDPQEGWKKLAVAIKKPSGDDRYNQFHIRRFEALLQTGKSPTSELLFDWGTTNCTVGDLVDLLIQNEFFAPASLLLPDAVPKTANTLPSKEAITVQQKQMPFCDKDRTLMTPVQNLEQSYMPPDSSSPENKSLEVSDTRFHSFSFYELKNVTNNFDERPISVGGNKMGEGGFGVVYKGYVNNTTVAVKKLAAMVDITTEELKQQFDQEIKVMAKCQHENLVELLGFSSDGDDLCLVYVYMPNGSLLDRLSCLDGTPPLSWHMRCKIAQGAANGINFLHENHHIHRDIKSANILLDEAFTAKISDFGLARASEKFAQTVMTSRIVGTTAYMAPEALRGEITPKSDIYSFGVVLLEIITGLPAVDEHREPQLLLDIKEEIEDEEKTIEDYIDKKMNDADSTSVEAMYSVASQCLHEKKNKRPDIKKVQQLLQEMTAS
Ephrin type-B receptor 6 (Homo sapiens), sequence (O15197 whole entry): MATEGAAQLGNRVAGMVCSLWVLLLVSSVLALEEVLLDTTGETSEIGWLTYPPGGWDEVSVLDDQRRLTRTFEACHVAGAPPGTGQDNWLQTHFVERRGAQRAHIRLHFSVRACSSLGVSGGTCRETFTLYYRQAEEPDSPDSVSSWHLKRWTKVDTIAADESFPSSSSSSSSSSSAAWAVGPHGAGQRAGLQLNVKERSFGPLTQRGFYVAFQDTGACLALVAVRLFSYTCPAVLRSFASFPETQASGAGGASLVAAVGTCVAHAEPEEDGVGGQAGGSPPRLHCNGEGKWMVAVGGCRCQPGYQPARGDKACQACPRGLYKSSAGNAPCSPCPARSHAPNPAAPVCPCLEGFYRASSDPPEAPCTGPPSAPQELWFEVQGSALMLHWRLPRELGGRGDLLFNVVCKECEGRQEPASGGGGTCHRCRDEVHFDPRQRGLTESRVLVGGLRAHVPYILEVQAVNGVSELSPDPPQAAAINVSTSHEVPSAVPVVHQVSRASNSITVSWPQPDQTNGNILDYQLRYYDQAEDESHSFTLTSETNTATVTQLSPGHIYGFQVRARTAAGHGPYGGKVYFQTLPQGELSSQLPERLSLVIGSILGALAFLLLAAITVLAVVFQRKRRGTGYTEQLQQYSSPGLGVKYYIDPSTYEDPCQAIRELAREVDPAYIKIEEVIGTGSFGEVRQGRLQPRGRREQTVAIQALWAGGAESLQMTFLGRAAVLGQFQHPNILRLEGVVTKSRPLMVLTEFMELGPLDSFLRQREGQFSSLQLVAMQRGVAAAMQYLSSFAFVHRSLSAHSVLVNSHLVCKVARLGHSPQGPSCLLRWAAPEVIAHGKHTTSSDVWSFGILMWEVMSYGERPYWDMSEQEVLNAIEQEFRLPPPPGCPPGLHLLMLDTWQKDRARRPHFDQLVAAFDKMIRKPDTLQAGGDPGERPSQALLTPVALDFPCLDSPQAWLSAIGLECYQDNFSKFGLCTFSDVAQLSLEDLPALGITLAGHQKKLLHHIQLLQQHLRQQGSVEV
Mitogen-activated protein kinase kinase kinase 19 (Homo sapiens), sequence (Q56UN5 whole entry): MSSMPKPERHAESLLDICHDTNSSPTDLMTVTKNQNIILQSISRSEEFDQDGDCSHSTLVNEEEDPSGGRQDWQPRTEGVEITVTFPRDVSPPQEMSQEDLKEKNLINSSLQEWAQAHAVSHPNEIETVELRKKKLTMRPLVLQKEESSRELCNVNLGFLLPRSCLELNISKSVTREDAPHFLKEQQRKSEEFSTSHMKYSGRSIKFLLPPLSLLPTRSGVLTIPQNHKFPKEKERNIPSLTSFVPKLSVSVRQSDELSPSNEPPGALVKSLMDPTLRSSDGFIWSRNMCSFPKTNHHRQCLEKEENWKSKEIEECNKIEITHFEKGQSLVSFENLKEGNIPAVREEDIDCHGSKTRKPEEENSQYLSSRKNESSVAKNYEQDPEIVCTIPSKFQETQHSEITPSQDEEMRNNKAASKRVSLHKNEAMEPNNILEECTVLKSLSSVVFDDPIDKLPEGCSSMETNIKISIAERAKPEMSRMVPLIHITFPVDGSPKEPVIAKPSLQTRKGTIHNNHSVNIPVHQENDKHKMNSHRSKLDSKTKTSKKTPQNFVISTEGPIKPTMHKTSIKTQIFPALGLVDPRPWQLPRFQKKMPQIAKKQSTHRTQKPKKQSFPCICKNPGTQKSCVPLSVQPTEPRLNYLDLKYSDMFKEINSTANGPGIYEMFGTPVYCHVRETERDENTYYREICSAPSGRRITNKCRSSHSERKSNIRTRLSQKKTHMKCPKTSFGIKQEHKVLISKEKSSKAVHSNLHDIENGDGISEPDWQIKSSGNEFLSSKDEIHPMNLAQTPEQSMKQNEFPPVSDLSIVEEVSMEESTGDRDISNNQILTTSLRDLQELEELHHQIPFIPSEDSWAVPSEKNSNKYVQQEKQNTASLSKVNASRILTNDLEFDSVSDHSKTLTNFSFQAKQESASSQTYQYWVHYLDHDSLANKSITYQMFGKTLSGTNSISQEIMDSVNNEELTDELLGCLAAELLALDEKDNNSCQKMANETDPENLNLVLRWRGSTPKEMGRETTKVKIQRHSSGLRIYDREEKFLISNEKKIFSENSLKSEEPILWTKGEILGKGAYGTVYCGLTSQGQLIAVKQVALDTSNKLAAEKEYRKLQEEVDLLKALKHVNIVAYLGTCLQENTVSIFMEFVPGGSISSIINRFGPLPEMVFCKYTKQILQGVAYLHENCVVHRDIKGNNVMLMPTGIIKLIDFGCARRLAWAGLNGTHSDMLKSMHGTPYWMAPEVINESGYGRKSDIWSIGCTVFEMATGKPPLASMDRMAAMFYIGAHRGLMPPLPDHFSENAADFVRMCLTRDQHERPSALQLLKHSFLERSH
Serine/threonine-protein kinase PAK 1 (Homo sapiens), sequence (Q13153 whole entry): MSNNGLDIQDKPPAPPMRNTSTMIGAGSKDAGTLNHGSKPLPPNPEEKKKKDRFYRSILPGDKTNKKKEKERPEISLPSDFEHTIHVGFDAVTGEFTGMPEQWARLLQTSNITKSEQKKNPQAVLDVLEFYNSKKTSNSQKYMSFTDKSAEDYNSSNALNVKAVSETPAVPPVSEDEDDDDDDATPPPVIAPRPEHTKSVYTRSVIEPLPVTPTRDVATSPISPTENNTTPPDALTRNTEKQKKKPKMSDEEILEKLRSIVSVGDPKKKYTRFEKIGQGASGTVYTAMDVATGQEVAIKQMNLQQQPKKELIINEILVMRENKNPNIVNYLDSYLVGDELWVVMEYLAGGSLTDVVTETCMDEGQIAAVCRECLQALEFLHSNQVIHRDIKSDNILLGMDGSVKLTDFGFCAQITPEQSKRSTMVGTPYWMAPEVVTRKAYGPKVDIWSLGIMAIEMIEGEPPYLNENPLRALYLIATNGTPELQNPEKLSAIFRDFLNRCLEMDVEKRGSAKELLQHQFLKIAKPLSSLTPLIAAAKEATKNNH
Serine/threonine-protein kinase 4 (Homo sapiens), sequence (Q13043 whole entry): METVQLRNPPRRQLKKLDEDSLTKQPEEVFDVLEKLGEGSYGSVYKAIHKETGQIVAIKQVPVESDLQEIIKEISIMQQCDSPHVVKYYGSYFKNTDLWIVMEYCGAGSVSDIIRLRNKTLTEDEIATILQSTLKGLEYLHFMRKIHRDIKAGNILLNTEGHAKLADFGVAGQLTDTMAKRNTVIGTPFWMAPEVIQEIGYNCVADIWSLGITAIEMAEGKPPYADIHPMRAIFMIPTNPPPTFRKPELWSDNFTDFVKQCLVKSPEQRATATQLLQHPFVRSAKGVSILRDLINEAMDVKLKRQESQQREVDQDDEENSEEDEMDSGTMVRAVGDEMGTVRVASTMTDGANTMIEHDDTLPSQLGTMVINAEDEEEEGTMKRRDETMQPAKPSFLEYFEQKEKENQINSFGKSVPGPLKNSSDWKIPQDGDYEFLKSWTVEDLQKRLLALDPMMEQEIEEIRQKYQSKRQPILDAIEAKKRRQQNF
Serine/threonine-protein kinase ICK (Homo sapiens), sequence (Q9UPZ9 whole entry): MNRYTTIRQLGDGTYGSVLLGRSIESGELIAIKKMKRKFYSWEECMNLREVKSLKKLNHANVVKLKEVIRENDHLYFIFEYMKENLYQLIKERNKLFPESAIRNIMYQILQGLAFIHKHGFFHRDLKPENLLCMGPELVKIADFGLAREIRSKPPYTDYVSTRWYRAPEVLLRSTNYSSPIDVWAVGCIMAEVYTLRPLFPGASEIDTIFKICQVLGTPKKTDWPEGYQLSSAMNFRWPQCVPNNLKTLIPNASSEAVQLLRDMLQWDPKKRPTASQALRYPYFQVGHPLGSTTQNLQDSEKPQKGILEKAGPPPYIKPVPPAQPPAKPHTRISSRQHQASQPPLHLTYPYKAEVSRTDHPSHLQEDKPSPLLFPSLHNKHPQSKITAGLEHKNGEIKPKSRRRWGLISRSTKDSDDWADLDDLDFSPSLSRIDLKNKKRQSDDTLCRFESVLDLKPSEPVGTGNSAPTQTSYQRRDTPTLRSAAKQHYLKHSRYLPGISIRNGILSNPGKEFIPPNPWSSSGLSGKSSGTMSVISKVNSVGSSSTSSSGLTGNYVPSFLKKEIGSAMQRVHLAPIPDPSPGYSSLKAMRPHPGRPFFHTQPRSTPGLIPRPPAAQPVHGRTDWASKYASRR
TGF-beta receptor type-2 (Homo sapiens), sequence (P37173 whole entry): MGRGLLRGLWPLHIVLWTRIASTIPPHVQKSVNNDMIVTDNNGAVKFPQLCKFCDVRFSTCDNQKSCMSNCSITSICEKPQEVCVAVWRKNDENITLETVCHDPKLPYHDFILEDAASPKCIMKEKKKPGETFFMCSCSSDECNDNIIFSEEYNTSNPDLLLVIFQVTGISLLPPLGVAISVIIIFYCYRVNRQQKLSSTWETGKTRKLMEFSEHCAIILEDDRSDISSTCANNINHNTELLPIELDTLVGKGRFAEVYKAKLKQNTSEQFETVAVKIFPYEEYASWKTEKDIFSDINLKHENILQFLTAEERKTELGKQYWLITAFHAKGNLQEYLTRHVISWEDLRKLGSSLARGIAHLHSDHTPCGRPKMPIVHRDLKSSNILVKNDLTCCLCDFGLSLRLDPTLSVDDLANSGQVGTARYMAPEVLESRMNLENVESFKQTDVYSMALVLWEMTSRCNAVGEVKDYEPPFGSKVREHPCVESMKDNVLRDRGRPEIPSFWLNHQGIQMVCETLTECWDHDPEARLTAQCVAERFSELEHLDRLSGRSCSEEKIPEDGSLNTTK

O=c1nc(-c2ccccn2)sc2ccccc12 [BTZO-1]
inactive: residual activity [1] 100% | residual activity [2] 84% | residual activity [3] 88% | residual activity [4] 95% | residual activity [5] 100% | residual activity [6] 91% | residual activity [7] 100% | residual activity [8] 100% | residual activity [9] 100% | residual activity [10] 100% | residual activity [11] 61% | residual activity [12] 90% | residual activity [13] 98% | residual activity [14] 61% | residual activity [15] 83% | residual activity [16] 100% | residual activity [17] 100% | residual activity [18] 95% | residual activity [19] 99% | residual activity [20] 100% | residual activity [21] 82% | residual activity [22] 93% | residual activity [23] 75% | residual activity [24] 100% | residual activity [25] 87% | residual activity [26] 75% | residual activity [27] 94% | residual activity [28] 100% | residual activity [29] 84% | residual activity [30] 100% | residual activity [31] 100% | residual activity [32] 65% | residual activity [33] 76% | residual activity [34] 100% | residual activity [35] 81% | residual activity [36] 85% | residual activity [37] 100% | residual activity [38] 99% | residual activity [39] 100% | residual activity [40] 72% | residual activity [41] 100% | residual activity [42] 82% | residual activity [43] 100% | residual activity [44] 86% | inhibition [45] 17%

O=C1NC(c2ccccn2)Sc2ccccc21 (stereo not given) [BTZO-4]
inactive: residual activity [1] 80% | residual activity [2] 89% | residual activity [3] 88% | residual activity [4] 91% | residual activity [5] 100% | residual activity [6] 100% | residual activity [7] 99% | residual activity [8] 100% | residual activity [9] 89% | residual activity [10] 79% | residual activity [11] 78% | residual activity [12] 79% | residual activity [13] 92% | residual activity [14] 75% | residual activity [15] 86% | residual activity [16] 100% | residual activity [17] 100% | residual activity [18] 80% | residual activity [19] 89% | residual activity [20] 80% | residual activity [21] 75% | residual activity [22] 87% | residual activity [23] 81% | residual activity [24] 80% | residual activity [25] 90% | residual activity [26] 68% | residual activity [27] 96% | residual activity [28] 100% | residual activity [29] 83% | residual activity [30] 97% | residual activity [31] 100% | residual activity [32] 73% | residual activity [33] 59% | residual activity [34] 100% | residual activity [35] 100% | residual activity [36] 80% | residual activity [37] 75% | residual activity [38] 87% | residual activity [39] 85% | residual activity [40] 81% | residual activity [41] 91% | residual activity [42] 99% | residual activity [43] 91% | residual activity [44] 92% | inhibition [45] -5.58%
